Converted amounts (≈) assume the structure as drawn. Read-outs that look alike come from different tables or passages of the source.
Experiments:
COLO 320DM cells [1] = assay: real-time qRT-PCR of WNT/β-catenin target genes in COLO 320DM cells; format: cell-based, human; settings: dose-dependent
Protocol: (§1) After 5 days, the antiproliferative effect of compound treatment was measured at 490 nm. Mean value ± standard deviation (SD) for one representative experiment of more than three repeated assays, each with six replicates, are shown. […] (b) Representative immunoblots of cytoplasmic TNKS1/2, AXIN1, AXIN2, and cytoplasmic and nuclear transcriptionally active β-catenin (non-phospho) and β-catenin. […] For (b) and (c), control = 0.001% DMSO. (c) Real-time RT-qPCR analyses of WNT/β-catenin signaling target genes (AXIN2, DKK1, NKD1, and APCDD1). Boxplots show median, first and third quartiles, and maximum and minimum whiskers for combined data from three independent experiments with three replicates each. Dotted lines depict the control mean value = 1. For (a) and (c), analysis of variance (ANOVA) tests (Holm–Sidak method, versus control) are indicated by *** (p < 0.001) and * (p < 0.05), while ANOVA on ranks tests (Dunn’s method, versus control) are indicated by ^† (p < 0.05).

hERG = target: T1, hERG (Homo sapiens, UniProt Q12809); assay: hERG inhibition
T1 construct: Eurofins (Cerep), contract assay
Protocol: (§2) A safety panel (Cerep) of 44 selected targets (n = 2) including hERG Inhibition using 10 μM 24 was performed by Eurofins. Ames and CYP3A4 inhibition assays were performed by Cyprotex, and the PXR assay (CYP induction) was performed at Admescope. The PARP assays are described below.

PARP3 = target: T2, PARP3 (Homo sapiens, UniProt Q9Y6F1); assay: PARP3 biochemical assay; settings: > under 50% inhibition
T2 construct: made in house
Protocol: The enzymatic assay measures unreacted NAD^+, which is chemically reacted into a fluorescent compound.[53] […] All reactions were performed at ambient temperature.
The assay conditions for the other PARP enzymes were used as previously described.[39] Reference compound OD336 behaved in this assay as previously reported.[28]

CYP3A4 = target: T3, CYP3A4 (Homo sapiens, UniProt P08684); assay: CYP3A4 inhibition; format: in vitro ADME
T3 construct: Cyprotex, contract assay
Protocol: as §2

mouse plasma stability = format: in vitro ADME; settings: read-out: mouse plasma stability t1/2
Protocol: (§3) Kinetic solubility, microsomal stability, and plasma stability were determined following our internal protocol (Symeres). The Caco-2 and PPB determinations were performed by Cyprotex.

COLO 320DM cells [2] = assay: cells
Protocol: as §1
(§4) Antiproliferative assays using colon cancer cell lines COLO 320DM and RKO were performed as previously described.[39]

COLO 320DM cells [3] = assay: Western blot of cytoplasmic and nuclear lysates of treated COLO 320DM cells; format: cell-based, human
Protocol: as §1
Western blot analysis of nuclear and cytoplasmic lysates from compound-treated COLO 320DM cells was performed as previously described.[39],[50]

[4] = microsomal stability, human; format: in vitro ADME; settings: microsomes
Protocol: as §3

[5] = mouse plasma protein binding; format: in vitro ADME; settings: read-out: mouse PPB (converted)
Protocol: as §3

TNKS1 = target: T4, TNKS1 (Homo sapiens, UniProt O95271); assay: TNKS1 biochemical assay (unreacted NAD+ fluorescence); settings: TNKS1 20 nM, 10 μM NAD+, 20 h
T4 construct: TNKS1 (residues 1030–1317); made in house
Protocol: New compounds were prepared in half-log dilution series, and the reactions were carried out in quadruplicates with protein and compound controls to exclude the effect of compound autofluorescence. All reactions were performed at ambient temperature. TNKS1 (20 nM) or TNKS2 (5 nM) was incubated for 20 h in assay buffer (50 mM Bis-Tris propane (BTP), pH 7.0, 0.5 mM Tris(2-carboxyethyl)phosphine (TCEP), 0.01% Triton X-100) with compound and 10 μM or 500 nM NAD^+, respectively.

PARP1 = target: T5, PARP1 (Homo sapiens, UniProt P09874); assay: PARP1 biochemical assay; settings: > under 50% inhibition
T5 construct: made in house
Protocol: (§5) All reactions were performed at ambient temperature.
(§6) The assay conditions for the other PARP enzymes were used as previously described.[39]

PARP12 = target: T6, PARP12 (Homo sapiens, UniProt Q9H0J9); assay: PARP12 biochemical assay; settings: >>: no inhibition detected; concentration limited by DMSO tolerance
T6 construct: made in house
Protocol: as §5, §6

PARP15 = target: T7, PARP15 (Homo sapiens, UniProt Q460N3); assay: PARP15 biochemical assay; settings: >>: no inhibition detected; concentration limited by DMSO tolerance
T7 construct: made in house
Protocol: as §5, §6

PARP14 = target: T8, PARP14 (Homo sapiens, UniProt Q460N5); assay: PARP14 biochemical assay; settings: > under 50% inhibition
T8 construct: made in house
Protocol: as §5, §6

[6] = microsomal stability, dog; format: in vitro ADME; settings: microsomes
Protocol: as §3

in vitro = in vitro ADME; settings: human, Caco-2
Protocol: as §3

kinetic solubility = format: physicochemical; settings: PBS pH = 7
Protocol: as §3

human PXR = target: T9, human PXR (Homo sapiens, UniProt O75469); assay: PXR assay (CYP induction); format: in vitro ADME; settings: highest concentration, 100 μM
T9 construct: Admescope, contract assay
Protocol: as §2

Ames test = assay: Ames test
Protocol: as §2

PARP2 = target: T10, PARP2 (Homo sapiens, UniProt Q9UGN5); assay: PARP2 biochemical assay; settings: > under 50% inhibition
T10 construct: made in house
Protocol: as §5, §6

PARP10 = target: T11, PARP10 (Homo sapiens, UniProt Q53GL7); assay: PARP10 biochemical assay; settings: >>: no inhibition detected
T11 construct: made in house
Protocol: as §5, §6

RKO cells = assay: MTS colorimetric cell growth assay, RKO; format: cell-based, human
Protocol: as §1, §4

[7] = mouse peroral pharmacokinetic analysis; format: in vivo; settings: mouse PO 5 mg/kg
Protocol: The pharmacokinetic analyses in mice were performed according to the standard protocols of Medicilon as previously described[21] following approval by local animal experiment authorities (Shanghai, China) and in compliance with FELASA guidelines and recommendations. Three IRC mice were used per treatment group: 5 mg/kg 24 in 5% DMSO, 50% PEG400 (both Sigma-Aldrich), and 45% saline as vehicle.

T4 sequence (O95271 1030-1317): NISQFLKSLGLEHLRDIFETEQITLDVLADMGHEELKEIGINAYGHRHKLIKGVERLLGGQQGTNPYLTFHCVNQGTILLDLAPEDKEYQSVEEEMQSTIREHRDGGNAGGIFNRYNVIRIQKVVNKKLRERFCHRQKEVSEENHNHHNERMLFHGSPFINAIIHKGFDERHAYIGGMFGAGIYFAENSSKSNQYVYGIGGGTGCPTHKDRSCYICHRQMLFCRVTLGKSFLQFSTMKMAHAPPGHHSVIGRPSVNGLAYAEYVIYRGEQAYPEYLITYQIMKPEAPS
T6 sequence (Q9H0J9 whole entry): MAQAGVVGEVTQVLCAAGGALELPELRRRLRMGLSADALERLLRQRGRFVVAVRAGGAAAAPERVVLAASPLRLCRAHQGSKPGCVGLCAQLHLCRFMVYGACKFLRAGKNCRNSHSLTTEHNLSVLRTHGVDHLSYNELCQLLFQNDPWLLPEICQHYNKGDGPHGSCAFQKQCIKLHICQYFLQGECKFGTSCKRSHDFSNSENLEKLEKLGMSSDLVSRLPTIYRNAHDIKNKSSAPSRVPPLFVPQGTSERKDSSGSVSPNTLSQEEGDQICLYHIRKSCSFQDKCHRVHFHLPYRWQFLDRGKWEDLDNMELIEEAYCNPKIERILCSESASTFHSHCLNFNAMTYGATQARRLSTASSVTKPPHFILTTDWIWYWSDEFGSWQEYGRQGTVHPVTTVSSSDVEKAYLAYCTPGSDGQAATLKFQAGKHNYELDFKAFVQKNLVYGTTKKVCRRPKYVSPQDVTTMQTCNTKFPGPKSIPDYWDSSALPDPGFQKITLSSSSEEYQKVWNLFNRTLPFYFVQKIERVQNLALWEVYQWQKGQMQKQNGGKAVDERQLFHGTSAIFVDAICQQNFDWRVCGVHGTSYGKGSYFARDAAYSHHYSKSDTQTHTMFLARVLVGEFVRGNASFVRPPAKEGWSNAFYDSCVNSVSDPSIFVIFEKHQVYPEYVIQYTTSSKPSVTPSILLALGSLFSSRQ
T11 sequence (Q53GL7 whole entry): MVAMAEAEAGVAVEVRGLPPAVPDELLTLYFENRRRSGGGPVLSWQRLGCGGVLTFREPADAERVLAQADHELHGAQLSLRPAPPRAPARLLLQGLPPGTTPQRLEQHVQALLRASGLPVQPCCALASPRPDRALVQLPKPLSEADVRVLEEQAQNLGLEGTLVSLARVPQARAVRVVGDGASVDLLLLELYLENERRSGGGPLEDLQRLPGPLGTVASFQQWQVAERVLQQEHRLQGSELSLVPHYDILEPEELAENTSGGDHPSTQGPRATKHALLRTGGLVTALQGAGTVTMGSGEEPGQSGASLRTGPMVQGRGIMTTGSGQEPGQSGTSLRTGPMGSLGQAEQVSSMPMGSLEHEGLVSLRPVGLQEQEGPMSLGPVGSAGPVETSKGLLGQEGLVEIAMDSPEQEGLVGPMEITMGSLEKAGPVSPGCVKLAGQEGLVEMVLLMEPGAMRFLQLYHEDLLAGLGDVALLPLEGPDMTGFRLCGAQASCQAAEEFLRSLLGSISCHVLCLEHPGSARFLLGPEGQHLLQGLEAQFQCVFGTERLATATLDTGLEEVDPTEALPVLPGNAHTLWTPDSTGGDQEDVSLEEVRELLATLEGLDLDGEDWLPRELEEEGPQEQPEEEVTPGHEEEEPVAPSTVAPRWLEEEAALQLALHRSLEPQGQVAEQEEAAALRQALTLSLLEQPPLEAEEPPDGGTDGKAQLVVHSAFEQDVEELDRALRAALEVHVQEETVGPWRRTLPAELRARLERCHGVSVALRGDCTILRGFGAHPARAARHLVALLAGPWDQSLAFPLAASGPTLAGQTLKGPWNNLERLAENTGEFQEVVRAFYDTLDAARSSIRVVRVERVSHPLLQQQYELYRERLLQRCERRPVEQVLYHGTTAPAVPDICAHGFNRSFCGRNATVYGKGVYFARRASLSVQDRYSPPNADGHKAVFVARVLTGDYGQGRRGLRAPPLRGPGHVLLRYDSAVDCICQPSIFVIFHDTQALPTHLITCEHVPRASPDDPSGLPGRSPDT
T9 sequence (O75469 whole entry): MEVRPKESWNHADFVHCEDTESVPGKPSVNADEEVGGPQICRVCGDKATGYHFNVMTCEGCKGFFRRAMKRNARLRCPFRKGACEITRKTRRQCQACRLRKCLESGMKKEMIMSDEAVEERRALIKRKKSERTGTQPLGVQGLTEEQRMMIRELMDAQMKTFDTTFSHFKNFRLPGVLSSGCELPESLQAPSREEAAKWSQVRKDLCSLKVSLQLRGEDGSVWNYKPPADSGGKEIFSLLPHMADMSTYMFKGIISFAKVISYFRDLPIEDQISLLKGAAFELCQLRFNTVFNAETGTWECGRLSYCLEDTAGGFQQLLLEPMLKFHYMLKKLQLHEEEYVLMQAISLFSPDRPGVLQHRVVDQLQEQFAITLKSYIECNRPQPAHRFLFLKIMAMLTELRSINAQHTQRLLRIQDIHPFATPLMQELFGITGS
T7 sequence (Q460N3 whole entry): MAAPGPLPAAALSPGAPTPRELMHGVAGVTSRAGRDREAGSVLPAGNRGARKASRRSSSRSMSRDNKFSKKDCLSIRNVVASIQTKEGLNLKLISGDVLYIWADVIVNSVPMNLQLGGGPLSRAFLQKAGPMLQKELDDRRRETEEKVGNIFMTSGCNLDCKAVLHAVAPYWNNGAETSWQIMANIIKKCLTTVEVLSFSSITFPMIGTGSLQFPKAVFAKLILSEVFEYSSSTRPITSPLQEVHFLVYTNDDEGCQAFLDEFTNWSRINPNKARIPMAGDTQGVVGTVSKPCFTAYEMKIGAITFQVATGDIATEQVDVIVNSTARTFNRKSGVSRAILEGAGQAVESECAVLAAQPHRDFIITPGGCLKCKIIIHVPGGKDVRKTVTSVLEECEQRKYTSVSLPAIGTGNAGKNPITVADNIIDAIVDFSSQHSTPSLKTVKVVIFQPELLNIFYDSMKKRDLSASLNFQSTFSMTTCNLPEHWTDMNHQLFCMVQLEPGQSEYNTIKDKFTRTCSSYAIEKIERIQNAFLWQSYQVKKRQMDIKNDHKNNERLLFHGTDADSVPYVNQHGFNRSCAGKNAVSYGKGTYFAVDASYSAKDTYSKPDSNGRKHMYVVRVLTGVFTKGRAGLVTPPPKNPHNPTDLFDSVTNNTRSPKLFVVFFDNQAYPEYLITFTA
T2 sequence (Q9Y6F1 whole entry): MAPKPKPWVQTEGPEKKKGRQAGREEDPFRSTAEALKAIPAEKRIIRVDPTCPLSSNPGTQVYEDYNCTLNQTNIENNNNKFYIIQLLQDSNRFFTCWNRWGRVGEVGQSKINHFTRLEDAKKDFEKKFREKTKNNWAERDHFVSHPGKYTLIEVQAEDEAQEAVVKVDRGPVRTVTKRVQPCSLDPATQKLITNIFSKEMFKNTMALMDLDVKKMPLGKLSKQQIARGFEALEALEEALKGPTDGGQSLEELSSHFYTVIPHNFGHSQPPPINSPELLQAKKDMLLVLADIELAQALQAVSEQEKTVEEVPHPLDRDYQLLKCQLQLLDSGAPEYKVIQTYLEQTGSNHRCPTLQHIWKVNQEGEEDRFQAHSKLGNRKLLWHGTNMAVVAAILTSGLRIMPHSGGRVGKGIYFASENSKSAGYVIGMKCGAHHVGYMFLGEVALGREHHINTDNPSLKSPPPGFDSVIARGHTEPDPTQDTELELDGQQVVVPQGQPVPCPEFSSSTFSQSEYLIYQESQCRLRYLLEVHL
T3 sequence (P08684 whole entry): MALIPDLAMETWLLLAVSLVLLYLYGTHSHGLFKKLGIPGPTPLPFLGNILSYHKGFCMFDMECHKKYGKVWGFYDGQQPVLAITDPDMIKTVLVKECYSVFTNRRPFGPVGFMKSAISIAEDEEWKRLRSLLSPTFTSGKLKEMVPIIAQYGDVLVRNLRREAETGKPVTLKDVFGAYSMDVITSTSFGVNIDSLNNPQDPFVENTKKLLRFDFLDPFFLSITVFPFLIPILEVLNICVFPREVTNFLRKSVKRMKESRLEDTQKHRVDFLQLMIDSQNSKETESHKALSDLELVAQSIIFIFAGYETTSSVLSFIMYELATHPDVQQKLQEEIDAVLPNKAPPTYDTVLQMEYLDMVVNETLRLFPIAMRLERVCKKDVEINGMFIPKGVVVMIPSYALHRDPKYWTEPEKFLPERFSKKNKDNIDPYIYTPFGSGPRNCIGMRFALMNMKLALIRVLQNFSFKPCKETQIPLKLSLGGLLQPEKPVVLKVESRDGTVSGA
T10 sequence (Q9UGN5 whole entry): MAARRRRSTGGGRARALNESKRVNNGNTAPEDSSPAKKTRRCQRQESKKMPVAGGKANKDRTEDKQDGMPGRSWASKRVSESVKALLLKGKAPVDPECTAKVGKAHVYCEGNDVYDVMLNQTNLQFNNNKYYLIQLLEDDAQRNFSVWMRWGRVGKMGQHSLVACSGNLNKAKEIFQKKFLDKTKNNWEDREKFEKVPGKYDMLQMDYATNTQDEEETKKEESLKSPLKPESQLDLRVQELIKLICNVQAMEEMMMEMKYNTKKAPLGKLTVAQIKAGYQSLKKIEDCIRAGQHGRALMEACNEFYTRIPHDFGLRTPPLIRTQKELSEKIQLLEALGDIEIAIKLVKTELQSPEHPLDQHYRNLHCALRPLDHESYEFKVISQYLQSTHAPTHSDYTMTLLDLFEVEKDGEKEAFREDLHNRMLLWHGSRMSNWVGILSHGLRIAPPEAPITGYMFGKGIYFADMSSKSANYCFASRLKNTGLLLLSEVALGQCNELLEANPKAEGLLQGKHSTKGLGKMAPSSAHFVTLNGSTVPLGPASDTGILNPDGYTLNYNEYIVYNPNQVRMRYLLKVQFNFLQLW

SMILES: CCOc1ccc(-c2nnc([C@H]3C[C@H](NC(=O)c4cccc5nccnc45)C3)n2-c2ccccc2F)nc1 [Compound 24, N-(trans-3-(5-(5-Ethoxypyridin-2-yl)-4-(2-fluorophenyl)-4H-1,2,4-triazol-3-yl)cyclobutyl)quinoxaline-5-carboxamide]
- transcripts of WNT/β-catenin target genes AXIN2, DKK1, NKD1, APCDD1 (COLO 320DM cells [1]): reduced levels
- IC50 (hERG): > 25 µM
- IC50 (PARP3): > 100 µM
- IC50 (CYP3A4): > 25 µM
- half-life (mouse plasma stability): > 120 min
- GI50 (COLO 320DM cells [2]; Homo sapiens, COLO 320DM, 120 h, read-out: COLO 320DM cells GI50, MTS, 5 days): 10.1 nM
- COLO 320DM cells GI25 (COLO 320DM cells [2]; MTS, 5 days): 2.5 nM
- GI50 (COLO 320DM cells [2]; read-out: COLO 320DM cells GI50, MTS, 5 days): 10 nM
- level of transcriptionally active β-catenin (nonphosphorylated) (COLO 320DM cells [3]; cytoplasmic and nuclear fractions): reduced
- TNKS1/2 protein levels (COLO 320DM cells [3]; dose-dependent, immunoblot): either increased or decreased
- AXIN1 and AXIN2 protein levels (COLO 320DM cells [3]; immunoblot): stabilized
- microsomal CLint at 1 h [4]: 18 µL/min/mg
- fraction unbound [5]: 0.0142
- IC50 (TNKS1): 13 nM
- TNKS1 pIC50 ± SEM (TNKS1): 7.90 ± 0.054
- IC50 (PARP1): > 100 µM
- IC50 (PARP12): > 10 µM
- IC50 (PARP15): > 10 µM
- IC50 (PARP14): > 100 µM
- microsomal CLint at 1 h [6]: 3.8 µL/min/mg
- Papp A→B at 2 h, 10 µM (in vitro): 40.5 ×10⁻⁶ cm/s
- efflux ratio (in vitro): 0.64
- solubility kinetic at 1 h (kinetic solubility): 31 µM (≈ 15.8 µg/mL)
- CYP induction (human PXR) (human PXR): nonactivator ^b ^c
- Ames test (Ames test): nongenotoxic
- IC50 (PARP2): > 100 µM
- IC50 (PARP10): > 10 µM
- effect of treatment on RKO cell viability (RKO cells; APC wild-type control colon cancer line): only modestly affected
- GI50 (RKO cells; Homo sapiens, RKO, 120 h, read-out: RKO cells GI50): > 10 µM
- AUC(0-inf) at 24 h ([7]; IRC, in vivo): 5040 ng·h/mL
- AUC(0-t) ([7]; IRC, in vivo): 4940 ng·h/mL
- Cmax at 24 h ([7]; IRC, in vivo): 1970 ng/mL
- Tmax at 24 h ([7]; IRC, in vivo): 30 min
- half-life at 24 h ([7]; IRC, in vivo): 90 min
- MRT inf at 24 h ([7]; IRC, in vivo, read-out: MRT 0 → ∞): 2.39 h
- CL [7]: 0.99 L/h/kg
- Vd [7]: 2.15 L/kg
- peak value (Cmax) relative to that of 1 [7]: about 60%
